Legend:
[1] = Cyclic voltammetry, reduction of nitro group; format: physicochemical; conditions: for −EpaIII: anodic peak potential of couple IIIc/IIIa; for −EpaIII / −EpcIII / −E1/2: given with inverted sign, vs. Ag/AgCl electrode in DMSO; for −EpcIII: cathodic peak potential of couple IIIc/IIIa; for Ipa/Ipc: current ratio RNO2/RNO2•−, couple IIIc/IIIa, DMSO; for −E1/2: half-wave potential of couple IIIc/IIIa
Experimental: Cyclic Voltammetry (CV) was carried out using a Metrohm Autolab instrument model PGSTAT204, using dimethyl sulfoxide (DMSO) as the solvent (1 mM solutions), tetrabutylammonium perchlorate (0.1 M TBAP) as the supporting electrolyte, a hanging drop mercury electrode (HDME) as the working electrode, Ag/AgCl (3M KCl) as the reference electrode, and a graphite rod as the counter electrode. All measurements were performed after bubbling with nitrogen (N2) for 10 min.
Using Nicholson’s procedure, the Ipa/Ipc values (RNO2/RNO2^•−) were measured from each cyclic voltammogram with a scan rate between 0.1 and 2.5 V/s.

RAW 264.7 cells = assay: Cytotoxicity MTT assay on RAW 264.7 cells; format: cell-based; conditions: Mus musculus, RAW264.7, in vitro cytotoxicity, murine RAW 264.7 macrophages
Experimental: The compounds under study, dissolved in dimethylsulfoxide (DMSO), were added to the culture media at 10–200 μM. RAW 264.7 cells were cultured in 96-well plates (5 × 10^4 cells per well), and 100 μL of 0.5 mg/mL MTT was added to each well. The DMSO final concentration was less than 0.1% v/v. After incubation for 4 h at 37 °C, the generated water-insoluble formazan dye was dissolved by adding 100 μL of 10% w/v sodium dodecyl sulfate (SDS) in 0.01 M HCl. The plates were further incubated overnight at 37 °C; […] 0.5% of Triton X-100 was added as a positive control. The plates were further incubated overnight at 37 °C, and the optical density of the wells was determined using a microplate reader (Asys Expert Plus©, Asys Hitachi, Vienna, Austria) at 570 nm. Under these conditions, the optical density is directly proportional to the viable cell number in each well. All experiments were performed at least thrice and data were reported as means and their standard deviations from triplicate cultures. Results are reported as IC50 regarding the control (uninfected cells in culture medium)

[2] = system: T. cruzi epimastigote stage (Dm28c strain); assay: Epimastigotes viability study (MTT); format: cell-based, Trypanosoma cruzi; conditions: for SI Epimastigote: Selectivity Index IC50 macrophages RAW 264.7/IC50 epimastigotes Dm28c; for IC50: Trypanosoma cruzi, T. cruzi Dm28c epimastigotes, 24 h, MTT
Experimental: The trypanocidal activity was evaluated against the T. cruzi epimastigote stage (Dm28c strain). It was measured through the MTT assay using 0.22 mg/mL phenazine methosulfate (as an electron carrier). T. cruzi epimastigote from the author's collection (Programa de Farmacología Molecular y Clínica, Facultad de Medicina, Universidad de Chile, Santiago, Chile) were grown at 28 °C in liver infusion tryptase (LIT) medium, as reported earlier, but replacing blood with 4 μM hemin. […] fetal bovine serum (FBS) was added to a final concentration of 10% v/v. In this colorimetric assay for testing the trypanocidal activity, the compounds were dissolved in DMSO. They were added to 3 × 10^6 parasites/mL at 100 μM final concentrations in RPMI 1640 culture medium without phenol red for 24 h at 28 °C. The final concentration of DMSO was less than 0.1% v/v. […] The MTT assay, which was described previously, determined the viability of the epimastigotes.

Dm28c trypomastigotes = assay: Trypomastigote viability study (MTT); format: cell-based, Trypanosoma cruzi; conditions: for SI Trypomastigote: Selectivity Index IC50 macrophages RAW 264.7/IC50 trypomastigotes Dm28c; for IC50: Trypanosoma cruzi, T. cruzi Dm28c trypomastigotes, 24 h, MTT
Experimental: Vero cells (ATCC CCL-81) were infected with Dm28c trypomastigotes at a 1:3 (cell: parasite) ratio. T. cruzi trypomastigotes were initially obtained from primary cultures of peritoneal macrophage from chagasic mice. […] Vero cell cultures were then infected with trypomastigotes and incubated at 37 °C in humidified air and 5% CO2 for 5–7 days. After that time, the culture medium was collected and centrifuged at 500× g for 5 min. The trypomastigote-containing pellet was re-suspended in RPMI 1640 supplemented with inactivated FBS and penicillin–streptomycin at a final 1 × 10^7 parasites/mL density. Trypomastigote viability assays were performed using the MTT reduction method as described previously. Then, 1 × 10^7 parasites/mL was incubated in RPMI 1640 with inactivated FBS at 37 °C for 24 h with or without the studied compounds.

| Compound | −EpaIII [1] [V] | −EpcIII [1] [V] | Ipa/Ipc [1] | −E1/2 [1] [V] | IC50 (RAW 264.7 cells) [µM] | SI Epimastigote [2] | IC50 [2] [µM] | SI Trypomastigote (Dm28c trypomastigotes) | IC50 (Dm28c trypomastigotes) [µM] | melting point [°C] |
| --- | --- | --- | --- | --- | --- | --- | --- | --- | --- | --- |
| Cn1c2ccc([N+](=O)[O-])cc2c(=O)n1Cc1ccccc1C(F)(F)F [Compound 17, 1-Methyl-5-nitro-2-[2-(trifluoromethyl)benzyl]-1,2-dihydro-3H-indazol-3-one] | 0.82 | 1.37 | 0.96 | 1.10 | 166 ± 2.3 | 4.7 | 35.4 ± 1.1 | 1.9 | 89.3 ± 1 | 211 to 213 |
| Cn1c2ccc([N+](=O)[O-])cc2c(=O)n1Cc1cccc(Cl)c1 [Compound 10, 2-(3-Chlorobenzyl)-1-methyl-5-nitro-1,2-dihydro-3H-indazol-3-one] | 0.96 | 1.17 | 0.93 | 1.07 | > 200 | >5.0 | 40.3 ± 2 | >3.7 | 54.2 ± 1.1 | 154 to 156 |
| Cn1c2ccc([N+](=O)[O-])cc2c(=O)n1Cc1cccc(F)c1 [Compound 7, 2-(3-Fluorobenzyl)-1-methyl-5-nitro-1,2-dihydro-3H-indazol-3-one] | 0.98 | 1.20 | 1.00 | 1.09 | 95.1 ± 1.1 | 3.2 | 29.5 ± 1.5 | 2.3 | 41.2 ± 0.8 | 125 to 127 |
| CC(c1ccccc1)n1c(=O)c2cc([N+](=O)[O-])ccc2n1C (stereo not shown) [Compound 18, 1-Methyl-5-nitro-2-(1-phenylethyl)-1,2-dihydro-3H-indazol-3-one] | 1.02 | 1.12 | 0.91 | 1.07 | > 200 | >2.9 | 68.7 ± 1.7 |  | > 100 | 155 to 157 |
| CC1CS(=O)(=O)CCN1/N=C/c1ccc([N+](=O)[O-])o1 (stereo not shown) [NFX, nifurtimox, reference compound] | 0.85 | 0.91 | 1.01 | 0.88 | 263.4 ± 2.2 | 15.1 | 17.4 ± 1.3 | 12.3 | 21.5 ± 1.4 |  |
| COc1ccc(Cn2c(=O)c3cc([N+](=O)[O-])ccc3n2C)cc1 [Compound 16, 2-(4-Methoxybenzyl)-1-methyl-5-nitro-1,2-dihydro-3H-indazol-3-one] | 1.03 | 1.15 | 0.91 | 1.09 | > 200 |  | > 100 |  | > 100 | 139 to 141 |
| Cn1nc(O)c2cc([N+](=O)[O-])ccc21 [Compound 19, 1-methyl-5-nitroindazol-3-ol] | 1.28 | 1.35 | 0.65 | 1.32 | > 200 |  | > 100 |  | > 100 |  |
| Cn1c2ccc([N+](=O)[O-])cc2c(=O)n1Cc1ccccc1Br [Compound 12, 2-(2-Bromobenzyl)-1-methyl-5-nitro-1,2-dihydro-3H-indazol-3-one] | 0.96 | 1.17 | 1.00 | 1.07 | 72.4 ± 1.6 | 2.4 | 30.3 ± 1.1 | 1.4 | 52.5 ± 1.3 | 182 to 184 |
| O=c1c2cc([N+](=O)[O-])ccc2[nH]n1-c1ccccc1 [Compound 4] | 1.27 | 1.37 | 0.63 | 1.32 | 97.5 ± 1.2 | 2.1 | 46.9 ± 3.4 | 1.5 | 63.4 ± 1.4 |  |
| O=[N+]([O-])c1ccc2c(c1)c(O)nn2CCCCCCCl [Compound 21] | 1.27 | 1.37 | 0.56 | 1.32 | > 200 | >2.4 | 84.3 ± 2.1 | >2.1 | 91.2 ± 2.2 |  |
| Cn1c2ccc([N+](=O)[O-])cc2c(=O)n1Cc1ccccc1Cl [Compound 9, 2-(2-Chlorobenzyl)-1-methyl-5-nitro-1,2-dihydro-3H-indazol-3-one] | 1.02 | 1.10 | 0.96 | 1.06 | 176 ± 2.3 | 4.0 | 43.7 ± 2 | 2.8 | 61.6 ± 1.4 | 179 to 181 |
| Cn1c2ccc([N+](=O)[O-])cc2c(=O)n1Cc1ccc(F)cc1 [Compound 8, 2-(4-Fluorobenzyl)-1-methyl-5-nitro-1,2-dihydro-3H-indazol-3-one] | 0.99 | 1.14 | 1.00 | 1.07 | 116 ± 1.7 | 3.2 | 36.4 ± 0.8 | 2.0 | 57.8 ± 1.3 | 139 to 141 |
| O=C(Cn1ccnc1[N+](=O)[O-])NCc1ccccc1 [BNZ, benznidazole, reference compound] | 0.93 | 1.08 | 0.98 | 1.00 |  |  |  |  |  |  |
| Cn1c2ccc([N+](=O)[O-])cc2c(=O)n1Cc1ccc(Br)cc1 [Compound 14, 2-(4-Bromobenzyl)-1-methyl-5-nitro-1,2-dihydro-3H-indazol-3-one] | 0.99 | 1.20 | 0.94 | 1.10 | 172 ± 2.3 | 2.1 | 83.9 ± 1.9 | 3.5 | 48.6 ± 1.2 | 144 to 146 |
| COc1nn(C)c2ccc([N+](=O)[O-])cc12 [Compound 23] | 1.25 | 1.37 | 0.78 | 1.31 | > 200 |  | > 100 |  | > 100 |  |
| Cn1c2ccc([N+](=O)[O-])cc2c(=O)n1Cc1ccccc1F [Compound 6] | 0.94 | 1.22 | 0.99 | 1.08 | 83.9 ± 0.9 | 2.6 | 32.9 ± 0.7 | 1.5 | 56.4 ± 1.5 |  |
| O=[N+]([O-])c1ccc2c(c1)c(O)nn2CCCCCO [Compound 20] | 1.28 | 1.38 | 0.67 | 1.33 | > 200 |  | > 100 |  | > 100 |  |

Reference: publication PMC11508334, “In Vitro Evaluation of New 5-Nitroindazolin-3-one Derivatives as Promising Agents against Trypanosoma cruzi” (International Journal of Molecular Sciences, 2024)
